This data set is described as follows: acute toxicity test on mice. Particulars: mouse, in vivo, other: injected, injected as emulsion of example 1 composition, observation time 72 hours, expressed for perfluorodecalin. As for the experimental part:
An emulsion of the same composition and prepared in the same way as in example 1 was tested on mice for acute toxicity. Observation time was 72 hours.
It appears that the acute toxicity (LD₅₀) will be just below 30 g/kg for perfluorodecalin. Owing to the great volumes that were injected, it cannot be excluded that changes in liquid and electrolyte balance have affected the results and that, therefore, an examination of this kind not solely reflects the toxicity of the fluorocarbon compound; however, the indicated value of 30 g/kg is of such a magnitude that the preparation can be regarded as non-toxic.

Bounds are passed on as bounds.

For the compound `FC1(F)C(F)(F)C(F)(F)C2(F)C(F)(F)C(F)(F)C(F)(F)C(F)(F)C2(F)C1(F)F` (stereo not shown) [perfluorodecalin], the LD50 at 72 h was < 30000 mg/kg.
